Results published in patent US10544133B2, “Heteroaryl substituted pyridyl compounds useful as kinase modulators” (BRISTOL-MYERS SQUIBB COMPANY, priority 2012, dated 2020).
Like-named read-outs stand apart in the source and are kept apart here.

Tested on: TLR2 induced IL-6 in peripheral blood mononuclear cells (PBMCs)
Experiment: PBMC TLR2 Induced IL-6 Assay
Type: cell-based
Settings: lipoteichoic acid 10 μg/ml 5 h, IL-6 by ELISA
Method: PBMC TLR2 Induced IL-6 Assay
Peripheral blood mononuclear cells (PBMCs) were isolated from human blood containing the anti-coagulant EDTA (2.5 mM) by centrifugation over a FICOLL® gradient. PBMCs (250000 cells/well) were cultured in assay media (RPMI with 10% heat inactivated FCS) with compounds for 30 minutes at 37° C. in a 5% CO2 incubator. Following pretreatment with compounds, cells were stimulated for 5 hours with 10 μg/ml lipoteichoic acid (Invivogen, San Diego, Calif.), a TLR2 agonist. At the end of the culture, plates were centrifuged at 1800 rpm for 10 minutes to pellet the cells. Supernatants were harvested and analyzed for IL-6 levels by ELISA (BD Biosciences, San Jose, Calif.).

[1] = Homo sapiens, PBMC, 5 h, value marked * = EC50, read-out: Cell EC50 (*)

Row | SMILES | EC50 [1] [nM] | also measured
1 | CC(C)(O)[C@H](F)CNC(=O)c1cnc(Nc2ncc(C#N)cc2F)cc1NC1CCCOC1 (some centres unmarked) [Example 98] |  | IC50 (Homo sapiens, PBMC, 5 h, value without asterisk, read-out: Cell IC50): 690 nM
2 | CC(C)Nc1cc(Nc2ncc(C#N)cc2Cl)ncc1C(=O)NC1CCC(C(C)(C)O)CC1 (centres unmarked) [Example 102] | 71 | 
3 | Cc1cnc(Nc2cc(NC(C)C)c(C(=O)NC[C@@H](F)C(C)(C)O)cn2)c(F)c1 [Example 129] | 398 | 
4 | CC(C)(O)[C@H](F)CNC(=O)c1cnc(Nc2ncc(C#N)c(N)n2)cc1NC1CC1 [Example 154] |  | EC50 (human PBMCs, value marked * = EC50, read-out: Cell EC50 (*)): 529 nM
5 | CC(C)(O)[C@H](F)CNC(=O)c1cnc(Nc2ncc(C#N)cc2F)cc1NC1COC1 [Example 164] | 174 | 
